Results taken from publication PMC6508677, “Identification of druggable small molecule antagonists of the Plasmodium falciparum hexose transporter PfHT and assessment of ligand access to the glucose permeation pathway via FLAG-mediated protein engineering” (PLoS ONE, 2019).

Target: T1, hGLUT1 (Homo sapiens, UniProt P11166)
T1 construct: expressed in transfected cells; host or cells: HEK293 (HEK293-FLIP); native hGLUT1 not knocked down in this line
T1 sequence (P11166 1-492): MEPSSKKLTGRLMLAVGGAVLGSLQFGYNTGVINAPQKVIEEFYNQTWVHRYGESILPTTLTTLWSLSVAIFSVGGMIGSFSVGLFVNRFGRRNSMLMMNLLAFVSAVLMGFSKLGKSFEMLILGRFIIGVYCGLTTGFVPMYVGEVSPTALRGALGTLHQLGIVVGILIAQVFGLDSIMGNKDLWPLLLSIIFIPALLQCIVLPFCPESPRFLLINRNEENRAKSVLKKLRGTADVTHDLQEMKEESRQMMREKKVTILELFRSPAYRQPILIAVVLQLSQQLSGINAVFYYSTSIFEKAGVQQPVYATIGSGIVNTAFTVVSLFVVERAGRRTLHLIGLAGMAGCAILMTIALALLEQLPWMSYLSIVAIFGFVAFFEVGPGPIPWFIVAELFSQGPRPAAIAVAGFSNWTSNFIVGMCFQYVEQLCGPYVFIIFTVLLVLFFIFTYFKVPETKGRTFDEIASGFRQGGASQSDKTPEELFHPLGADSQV
Test: 2-DG uptake by HEK293 cells overexpressing hGLUT1
Type: cell-based
Conditions: for IC50 for inhibition of 2-DG uptake: GLUT1 cell line; for inhibition at 5 µM: 5 μM compound
Excerpt: Generation of HEK293 cells overexpressing PfHT and human GLUTs 1–4 were described elsewhere. Briefly, HEK293 cells were transfected with pcDNA3.1 FLII12Pglu-7006 (Addgene), containing the fluorescence resonance energy transfer (FRET) glucose sensor (HEK293-FLIP) and PfHT, human GLUT1 (hGLUT1), hGLUT2, hGLUT3, hGLUT4, hGLUT5 or hGLUT8 using Optifect (Life Technologies) according to manufacturer’s specifications. To increase retention of GLUT8 at the plasma membrane, the dileucine sorting signal E^7E^8XXXLL was modified to R^7R^8XXXLL as described in [17]. Stable transfectants were selected for G418 and hygromycin resistance to select for FRET sensor and hexose transporter, respectively. HEK293-FLIP cells were also used to generate cells stably transfected with FLAG-tagged PfHT (FTPfHT). FLAG tag ([…]) followed by a triple glycine linker and a tobacco etch virus (TEV) protease site (ENLYFQS) followed by a triple glycine linker was added to the N-terminus of PfHT via PCR [18] using Phusion Hot Start II High-Fidelity DNA Polymerase (Fisher Scientific). Single clones were selected by comparing their abilities to transport glucose as assayed via FRET and radiolabeled hexose uptake. In all cell lines, except for HEK293 cells overexpressing hGLUT1 and hGLUT5, native hGLUT1 was knocked down using shRNA as described elsewhere. Transcript levels of the individual GLUTs expressed in each cell line are as described in [13, 15] and in S1 Fig.
Glucose uptake by P. falciparum was performed essentially as described. P. falciparum strain 3D7 was cultured in 100 mm tissue culture dishes (Techno Plastic Products) in a 2% suspension of human erythrocytes and RPMI 1640 medium until reaching > 7.5% parasitemia. Cells were pelleted via centrifugation and resuspended in RPMI 1640 medium. To determine the uptake of radiolabeled glucose into the parasite, parasites were isolated from infected erythrocytes by permeablization with saponin (0.05 w/v), followed by centrifugation, aspiration of supernatant and washing of the pellet 3X with saline solution (135 mM NaCl, 2 mM KCl, 25 mM HEPES, 0.2 mM glucose and 1 mM MgCl2; pH 7.1) to remove cellular debris. WU-1 or DMSO vehicle were added to 100 μl parasites (resuspended in saline) 5 min prior to the addition of 100 μl [^14C]2-DOG (0.2- μCi/ml final concentration). 2-DG uptake was stopped after 2 min by layering the entire reaction over 300 μl of an oil mixture (5:4 mix of dibutyl phthalate / dinonyl phthalate) in Eppendorf tubes and centrifuged at 15,850 × g for 2 mins. The ratio of the estimated intracellular concentration of radiolabel relative to the extracellular concentration were calculated as described. Uptake of radiolabeled hexose into HEK293 cells was measured in glucose-free HBSS as described previously. Briefly, cells were plated at 400,000 cells/well overnight at 37°C in 24-well plates pre-treated with PEI. After 30-min incubation at 37°C in glucose-free HBSS in the presence of vehicle or increasing concentrations of compound, 2-DG uptake was measured in glucose-free HBSS for 4 min at 37°C. Cultures were washed in ice-cold 1X PBS and lysed in 0.1% Triton X-100 in 1X PBS. Radiolabeled hexose uptake was determined by liquid scintillation counting (Ultima Gold, Thermo Fisher) and normalized to total protein per well. Uptake data are plotted as percent uptake relative to vehicle-treated cells. Kinetic analyses were performed using the indicated concentrations of substrate and WU-1, with quenching of uptake after 1 min incubation. Incubation times had been previously determined as being in the linear range of time-dependent radiolabeled hexose uptake (2 min for 2-DG uptake into freed parasites; 2 and 4 min for D-Frc and 2-DG uptake HEK cell lines, respectively). Data were fit by least squares nonlinear regression analysis using GraphPad Prism 6.0 software.

[1] = HEK293, 4 min, GLUT1, read-out: % Inhibition of 2-DG uptake vs vehicle

Row | SMILES | 2-DG uptake (percent uptake relative to vehicle) (GLUT1, 0.001 µM compound) | 2-DG uptake (percent uptake relative to vehicle) (GLUT1, 1.25 µM compound) | 2-DG uptake (percent uptake relative to vehicle) (GLUT1, 2.5 µM compound) | 2-DG uptake (percent uptake relative to vehicle) (GLUT1, 5 µM compound) | 2-DG uptake (percent uptake relative to vehicle) (GLUT1, 10 µM compound) | 2-DG uptake (percent uptake relative to vehicle) (GLUT1, 20 µM compound) | 2-DG uptake (percent uptake relative to vehicle) (GLUT1, 40 µM compound) | 2-DG uptake (percent uptake relative to vehicle) (GLUT1, 80 µM compound) | 2-DG uptake (percent uptake relative to vehicle) (GLUT1, 160 µM compound) | 2-DG uptake (percent uptake relative to vehicle) (GLUT1, 225 µM compound) | IC50 for inhibition of 2-DG uptake | inhibition at 5 µM [1] | inhibition at 10 µM (HEK293, 4 min, GLUT1, 10 μM compound, read-out: % Inhibition of 2-DG uptake vs vehicle) | inhibition at 2.5 µM (HEK293, 4 min, GLUT1, 2.5 μM compound, read-out: % Inhibition of 2-DG uptake vs vehicle)
1 | Cc1ccc(S(=O)(=O)CCNC(=O)c2c(-c3c(Cl)cccc3Cl)noc2C)cc1 [WU-1, 3-(2,6-dichlorophenyl)-5-methyl-N-[2-(4-methylbenzenesulfonyl)ethyl]-1,2-oxazole-4-carboxamide] | 100 | 99.74 | 109.88 | 102.1 | 100.82 | 110.03 | 120.62 | 121.35 | 125.18 | 132.09 | n.i. | -2.1% | – | –
2 | COc1c(Br)cc([N+](=O)[O-])c(OC)c1C(=O)NC(=O)Nc1c(C)cccc1Cl [WU-2, 3-(3-bromo-2,6-dimethoxy-5-nitrobenzoyl)-1-(2-chloro-6-methylphenyl)urea] | 100 | 114.79 | 107.57 | 107.75 | 114.4 | 108.02 | 132.21 | 130.08 | 118.85 | 129.55 | n.i. | -7.75% | – | –
3 | COc1cc(/C=N/NC(=O)c2cc(-c3ccccc3)sc2N)cc(OC)c1OC [WU-3, 2-amino-5-phenyl-N'-[(E)-(3,4,5-trimethoxyphenyl)methylidene]thiophene-3-carbohydrazide] | – | – | – | – | – | – | – | – | – | – | – | – | ≥ 50% | –
4 | COc1cc(/C=C2\COC/C(=C\c3cc(OC)c(OC)c(OC)c3)C2=O)cc(OC)c1OC [WU-5, (3E,5E)-3,5-bis[(3,4,5-trimethoxyphenyl)methylidene]oxan-4-one] | – | – | – | – | – | – | – | – | – | – | – | – | – | 2.94%
